The target of one assay is T1, RIPK1 kinase (Homo sapiens, UniProt Q13546).
T1 construct: purchased Promega VA7593
T1 sequence (Q13546 1-671): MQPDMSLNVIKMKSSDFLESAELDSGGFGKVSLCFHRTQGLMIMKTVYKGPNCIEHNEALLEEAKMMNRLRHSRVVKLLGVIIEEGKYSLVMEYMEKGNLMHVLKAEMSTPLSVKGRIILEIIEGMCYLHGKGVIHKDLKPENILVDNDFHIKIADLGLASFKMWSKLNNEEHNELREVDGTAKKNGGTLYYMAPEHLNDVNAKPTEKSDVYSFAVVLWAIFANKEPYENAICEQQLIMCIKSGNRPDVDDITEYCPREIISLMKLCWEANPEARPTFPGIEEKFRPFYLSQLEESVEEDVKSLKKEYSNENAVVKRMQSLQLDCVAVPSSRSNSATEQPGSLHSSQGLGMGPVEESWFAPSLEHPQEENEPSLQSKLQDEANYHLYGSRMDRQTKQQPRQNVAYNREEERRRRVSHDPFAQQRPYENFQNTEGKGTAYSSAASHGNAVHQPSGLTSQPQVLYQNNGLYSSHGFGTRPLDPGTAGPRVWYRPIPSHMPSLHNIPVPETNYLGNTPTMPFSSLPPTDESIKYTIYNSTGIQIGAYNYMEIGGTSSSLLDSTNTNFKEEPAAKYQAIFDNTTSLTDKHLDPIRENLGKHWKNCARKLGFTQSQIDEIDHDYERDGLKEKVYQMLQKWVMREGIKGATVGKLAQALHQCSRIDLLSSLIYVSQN
The experiment in a line: In vitro RIPK1 kinase activity assay (ADP-Glo), inhibition by compounds at 1 μM. The class given is biochemical. The conditions noted are these: compound 1 μM; ATP 10 μM; MBP substrate 100 μg/mL; read-out: RIPK1 kinase activity inhibition rate range. The protocol:
RIPK1 kinase activity was assayed using the ADP-Glo assay and RIPK1 kinase reaction system (Promega, catalog number: VA7593). The RIPK1 kinase activity assay was performed according to the Promega kit manual.
The experimental method was briefly described as below. The concentration of RIPK1 kinase in the RIPK1 kinase reaction system was determined by kinase titration and S/B10. Compounds were diluted with 1× kinase buffer D (1% DMSO), and 1 μL of 100 μM compound DMSO stock solution was added to 19 μL 1× kinase buffer D. RIPK1 kinase was diluted with 1× kinase buffer D. 2.5×ATP/substrate was diluted with 1× kinase buffer D. The final concentration of ATP in the kinase reaction system was 10 μM, and the final concentration of MBP substrate was 100 μg/mL. 1 μL of diluted compound and 2 μL of diluted RIPK1 kinase were mixed, incubated at room temperature for 15 minutes, 2 μL of 2.5×ATP/substrate was added, mixed, and incubated at room temperature for 1 hour. 5 μL of ADP-Glo reagent was added to each well and incubated at room temperature for 1 hour. 10 μL of ADP detection reagent was added to each well and incubated at room temperature for another 0.5-1 hour. The chemiluminescent signal was read by a microplate reader and the inhibition rate of kinase activity was calculated.
(In general: ADP-Glo turns the ADP formed in a reaction into a luminescent signal.)

For assay [1], the system named is U937 cells. Nature of the assay: Inhibition rate of compound (1 μM) on necroptosis of U937 cells (TSZ-induced, CellTiter-Glo). The class given is cell-based. The conditions noted are these: TSZ (hTNF-α, SM-164, Z-VAD-FMK) 20 hours. Here is the method:
(§1) The biological activity of RIPK1 inhibitors was further evaluated in the inhibition of necroptosis in U937 cells. U937 cell line was purchased from Huatuo Biotechnology and stored in liquid nitrogen. U937 cells were revived before the experiment and cultured in RPMI-1640 medium (supplemented with 10% fetal bovine serum, 100 U/mL penicillin and 100 μg/mL streptomycin) at 37° C., 5% CO2. The activity was further evaluated by the cellular ATP level detected by the Promega CellTiter-Glo 2.0 Assay cell viability assay kit (Catalog No.: G9242).
The experimental method was briefly described as below. U937 cells in the logarithmic growth phase were collected by centrifugation. Cells were diluted at the density of 5×10^5 cells/mL with RPMI 1640 medium (supplemented with 10% fetal bovine serum, 100 U/mL penicillin and 100 μg/mL streptomycin). The cell suspension was added to a white sterile 384-well cell culture plate at 15 μL/well. The test compound was dissolved in DMSO to prepare a 10 mM stock solution and diluted to 10 μM with culture medium. At the same time, a control with the same DMSO volume was set up. Two replicates were added for each concentration. The diluted compound was added to the 384-well cell culture plate containing cells at 2.5 µL/well and incubated at 37° C., 5% CO2 for 15 minutes. Z-VAD-FMK (Biyuntian, catalog number: C1202-5 mg) was dissolved in DMSO to prepare a 20 mM stock solution. SM-164 (Biyuntian, catalog number: SC0114-10 mM) was dissolved in DMSO to prepare a 10 mM stock solution and diluted to 0.1 mM. hTNF-α (Sino Biological Inc., catalog number: 10602-HNAE) was dissolved in sterile water to 10 μg/mL. RPMI 1640 medium (supplemented with 10% fetal bovine serum, 100 U/mL penicillin and 100 μg/mL streptomycin) was used to prepare the TSZ mixture, containing 133.3 μM Z-VAD-FMK, 33.3 ng/ml hTNF-α and 0.3 μM SM-164. After 15 minutes' coculture of compounds and cells, 7.5 μL of TSZ mixture was added to each well, mixed evenly, and cultured at 37° C., 5% CO2 for 20 hours. After 20 hours, the culture plate was removed and placed at room temperature for 30 minutes. 10 μL of CellTiter-Glo reagent pre-equilibrated at room temperature was added to each well and incubated for 10 minutes from light. The chemiluminescence was read by a microplate reader. The inhibition rate was calculated as Inh %=(1−(no TSZ-TSZ & compound)/(no TSZ-TSZ))×100.
A general note: Cellular ATP, detected with luciferase, serves as a proxy for viable cell number.

Assay [2] deals with U937 cells. The experiment in a line: EC50 of necroptosis inhibition in U937 cells (TSZ-induced, CellTiter-Glo). The format is cell-based. The conditions noted are these: Homo sapiens, U-937; TSZ (hTNF-α, SM-164, Z-VAD-FMK) 20 hours; 10 concentration points; read-out: EC50 intervals of necroptosis inhibition in U937 cells. Here is the method:
as §1
The experimental method was briefly described as below. U937 cells in the logarithmic growth phase were collected by centrifugation. Cells were diluted to the cell density of 5×10^5 cells/mL with RPMI 1640 medium (supplemented with 10% fetal bovine serum, 100 U/mL penicillin and 100 μg/mL streptomycin). Cell suspension was added to a white sterile 384-well cell culture plate at 15 μL/well. The test compound was dissolved in DMSO to prepare a 10 mM stock solution. The compound was serially diluted with culture medium at a ratio of 1:3, for a total of 10 concentration points. A control with the same DMSO volume was set, with two replicates for each concentration. The diluted compound was added to the 384-well cell culture plate containing cells at 2.5 μL/well and incubated at 37° C., 5% CO2 for 15 minutes. Z-VAD-FMK (Biyuntian, catalog number: C1202-5 mg) was dissolved in DMSO to prepare a 20 mM stock solution. SM-164 (Biyuntian, catalog number: SC0114-10 mM) was dissolved in DMSO to prepare a 10 mM stock solution and diluted to 0.1 mM. hTNF-α (Sino Biological Inc., catalog number: 10602-HNAE) was dissolved in sterile water to 10 μg/mL. RPMI 1640 medium (supplemented with 10% fetal bovine serum, 100 U/mL penicillin and 100 μg/mL streptomycin) was used to prepare the TSZ mixture, containing 133.3 μM Z-VAD-FMK, 33.3 ng/ml hTNF-α and 0.3 μM SM-164. After 15 minutes' coculture of compounds and cells, 7.5 μL of TSZ mixture was added to each well, mixed evenly, and cultured at 37° C., 5% CO2 for 20 hours. After 20 hours, the culture plate was removed and placed at room temperature for 30 minutes. Then, 10 μL of CellTiter-Glo reagent pre-equilibrated at room temperature was added to each well and incubated. After 10 minutes' incubation at room temperature in the dark, the chemiluminescence were measured using a microplate reader. The inhibition rate was calculated as Inh %=(1−(no TSZ-TSZ & compound)/(no TSZ-TSZ))×100. The EC50 was obtained by fitting the nonlinear regression curve log [inhibitor] vs. response−variable slope (four parameters) in GraphPad Prism.

We go through ten compounds from patent US20250368633A1, “AZEPINE FUSED RING COMPOUND AS RIPK1 INHIBITOR AND USE THEREOF” (ARTIVILA BIOPHARMA, priority 2022, published 2025).

The inhibition is the share of the control response that was lost under treatment. What is called EC50 is the concentration that produces a half-maximal response. Take `C#CCOc1ccc2c(c1)N(C)C(=O)[C@@H](NC(=O)C(=O)NCCc1ccccc1)CO2` [Example 10, (S)—N^1-(5-methyl-4-oxo-7-(prop-2-yn-1-yloxy)-2,3,4,5-tetrahydrobenzo[b][1,4]oxazepin-3-yl)-N^2-phenethyloxalamide]: the inhibition at 1 µM at RIPK1 kinase is no less than 75%. For the same compound, in the assay on U937 cells [1], the “Inhibition rate range of compounds (1 μM) on U937 cell necroptosis” value (from here on “Inhibition rate range of compounds”) is recorded as “A (A: ≥90%)”. For the same compound, the EC50 in the assay on U937 cells [2] lay within 100 to 500 nM.
The like results for `Cc1cccc(/C=C/c2ccc3c(c2)N(C)C(=O)[C@@H](NC(=O)C(=O)NCCc2ccccc2)CO3)c1` [Example 11, (S,E)-N^1-(5-methyl-7-(3-methylstyryl)-4-oxo-2,3,4,5-tetrahydrobenzo[b][1,4]oxazepin-3-yl)-N^2-phenethyloxalamide] were, in that order, no less than 75%, “A (A: ≥90%)” and less than 100 nM.
For `CN1C(=O)[C@@H](NC(=O)C(=O)NCCc2ccccc2)COc2ccc(C#Cc3ccncc3)cc21` [Example 12, (S)-N^1-(5-methyl-4-oxo-7-(pyridin-4-ylethynyl)-2,3,4,5-tetrahydrobenzo[b][1,4]oxazepin-3-yl)-N^2-phenethyloxalamide] the same measures were no less than 75%, “A (A: ≥90%)” and less than 100 nM.
The like results for `CN1C(=O)[C@@H](NC(=O)C(=O)NCCc2ccccc2)COc2ccc(C#Cc3ccccn3)cc21` [Example 14, (S)—N^1-(5-methyl-4-oxo-7-(pyridin-2-ylethynyl)-2,3,4,5-tetrahydrobenzo[b][1,4]oxazepin-3-yl)-N^2-phenethyloxalamide] were, in that order, no less than 75%, “A (A: ≥90%)” and less than 100 nM.
As for `CN1C(=O)[C@@H](NC(=O)C(=O)NCCc2ccccc2)COc2ccc(C#Cc3cncnc3)cc21` [Example 15, (S)—N^1-(5-methyl-4-oxo-7-(pyrimidin-5-ylethynyl)-2,3,4,5-tetrahydrobenzo[b][1,4]oxazepin-3-yl)-N^2-phenethyloxalamide], the inhibition at 1 µM on RIPK1 kinase was no less than 75%. The “Inhibition rate range of compounds” value in the assay with U937 cells [1] was “A (A: ≥90%)”. In the assay on U937 cells [2], the EC50 was less than 100 nM.
For `CN1C(=O)[C@@H](NC(=O)C(=O)NCCc2ccccc2)COc2ccc(C#Cc3cccs3)cc21` [Example 16, (S)—N^1-(5-methyl-4-oxo-7-(thiophen-2-ylethynyl)-2,3,4,5-tetrahydrobenzo[b][1,4]oxazepin-3-yl)-N^2-phenethyloxalamide] the same measures were 50 to 74%, “A (A: ≥90%)” and less than 100 nM.
For `C#Cc1ccc2c(c1)N(C)C(=O)[C@@H](NC(=O)C(=O)NCCc1ccccc1)CO2` [Example 20, (S)—N^1-(7-ethynyl-5-methyl-4-oxo-2,3,4,5-tetrahydrobenzo[b][1,4]oxazepin-3-yl)-N^2-phenethyloxalamide] the same measures were 50 to 74%, “A (A: ≥90%)” and less than 100 nM.
The like results for `CN1C(=O)[C@@H](NC(=O)C(=O)NCCc2ccccc2)COc2ccc(C#CC3CCNCC3)cc21` [Example 23, (S)—N^1-(5-methyl-4-oxo-7-(piperidin-4-ylethynyl)-2,3,4,5-tetrahydrobenzo[b][1,4]oxazepin-3-yl)-N^2-phenethyloxalamide] were, in that order, 50 to 74%, “A (A: ≥90%)” and less than 100 nM.
`CN1C(=O)[C@@H](NC(=O)C(=O)NCCc2ccccc2)COc2ccc(C#CC3=CCCCC3)cc21` [Example 26, (S)—N^1-(7-(cyclohex-1-en-1-ylethynyl)-5-methyl-4-oxo-2,3,4,5-tetrahydrobenzo[b][1,4]oxazepin-3-yl)-N^2-phenethyloxalamide]: the inhibition at 1 µM at RIPK1 kinase is no less than 75%. Besides, the “Inhibition rate range of compounds” value in the assay with U937 cells [1] is given as “A (A: ≥90%)”. Moreover, the EC50 in the assay on U937 cells [2] is less than 100 nM.
For `CN1C(=O)[C@@H](NC(=O)C(=O)NCCc2ccccc2)COc2ccc(C#Cc3cc(F)cc(F)c3)cc21` [Example 27, (S)—N^1-(7-((3,5-difluorophenyl)ethynyl)-5-methyl-4-oxo-2,3,4,5-tetrahydrobenzo[b][1,4]oxazepin-3-yl)-N^2-phenethyloxalamide] the same measures were 50 to 74%, “A (A: ≥90%)” and less than 100 nM.
